{"source": "patent US10207006B2", "about": "“Oligosaccharide conjugates and methods of use” (priority 2013, dated 2019)", "key": {"[1]": {"system": "anti-M monoclonal antibody BM40", "type": "binding"}, "[2]": {"system": "anti-A and anti-M rabbit hyperimmunised and absorbed monospecific sera", "type": "binding"}}, "data": [{"compound": "CO[C@H]1OC(C)[C@@H](NC=O)C(O)C1O[C@H]1OC(C)[C@@H](NC=O)C(O[C@H]2OC(C)[C@@H](NC=O)C(O)C2O[C@H](C=O)OC(C)[C@H](C=O)NC=O)C1O", "note": "(stereo partly drawn) [oxiTSM]", "values": [{"measurement": "inhibition of BM40 mAb binding by competing liquid phase antigen", "setting": "[1]", "value": "maintained its antibody interaction"}]}, {"compound": "C[C@H]1O[C@H](O[C@@H]2[C@@H](O[C@@H]3[C@H](O)[C@@H](O[C@H]4[C@@H](O)[C@H](NC=O)[C@@H](C)O[C@@H]4O)O[C@H](C)[C@H]3NC=O)O[C@H](C)[C@@H](NC=O)[C@@H]2O)[C@@H](O)[C@@H](O)[C@@H]1NC=O", "note": "[TSM antigen, 4,6-dideoxy-4-formamido-α-D-mannopyranosyl-(1-2)-4,6-dideoxy-4-formamido-α-D-mannopyranosyl-(1-3)-4,6-dideoxy-4-formamido-α-D-mannopyranosyl-(1-2)-4,6-dideoxy-4-formamido-α-D-mannopyranose]", "values": [{"measurement": "inhibition of BM40 mAb binding by competing liquid phase antigen", "setting": "[1]", "value": "inhibit the binding to a greater extent than the equivalent concentration of Y. enterocolitica O:9 OPS and to a similar degree as the B. abortus S99 OPS"}, {"measurement": "inhibition of anti-M vs anti-A monospecific sera binding", "setting": "[2]", "value": "preferential inhibition of the anti-M sera"}]}]}
